Data on two compounds can be found in ChEMBL document CHEMBL1125524, “Adenosine A1 antagonists. 2. Structure-activity relationships on diuretic activities and protective effects against acute renal failure” (J Med Chem, 1992).

Assay [1] deals with Rattus norvegicus. In words: Effect on urinary excretion potassium and sodium after oral administration of 0.4 mg/kg to rats(potassium and sodium excretion in control rat is 0.147+/-0.015). In kind it is functional, Urine.
Assay [2] concerns Rattus norvegicus. In words: Serum creatinine concentration measured after intraperitoneal administration of 0.1 mg/kg of compound to rats(vehicle 4.82+/-0.17). Type of assay: functional.
Assay [3] is filed under the species Rattus norvegicus. In words: Ratio of sodium ion/potassium ion concentration in treated rats to that in control rats, at a peroral dose of 0.1. Type of assay: functional.
Assay [4] is filed under the species Rattus norvegicus. In words: animal or person. The settings on record: ip, read-out: Inhibition, dose 1 mg/kg, route intraperitoneal.
Assay [5] concerns Rattus norvegicus. In words: Effect on urinary excretion potassium and sodium after oral administration of 0.1 mg/kg to rats(potassium and sodium excretion in control rat is 0.180+/-0.017). Type of assay: functional, Urine.
The test system of assay [6] is Rattus norvegicus. Nature of the assay: Ratio of urinary excretion value (Na+ concentration) in treated rats to that in control rats, at a peroral dose of 1.6 mg/Kg. Type of assay: functional, Urine.
Assay [7] relates to Rattus norvegicus. Nature of the assay: Percent inhibition of serum creatinine by the compound given as ratio of Cr value in treated to vehicle treated ones after intraperitoneal administration of 0.01 mg/kg of compound to rats(vehicle 3.92+/-0.23). In kind it is functional. The settings on record: ip.
In assay [8] the test system is Rattus norvegicus. In words: Ratio of urinary excretion value (urinary volume) in treated rats to that in control rats, at a peroral dose of 1.6 mg/Kg. Type of assay: functional, Urine.
Assay [9] concerns Rattus norvegicus. Nature of the assay: Ratio of urinary excretion value (urinary volume) in treated rats to that in control rats, at a peroral dose of 0.1 mg/Kg. In kind it is functional, Urine.
For another assay, the target named is Adenosine A2 receptor (Rattus norvegicus, UniProt P29276+P30543).
Assay [10] relates to Rattus norvegicus. In words: Oral diuretic activity was measured after oral administration of 0.4 mg/kg to rats(control volume is 0.96+/-0.09). Type of assay: functional, Urine.
In assay [11] the test system is Rattus norvegicus. In words: Ratio of sodium ion/potassium ion concentration in treated rats to that in control rats, at a peroral dose of 0.4 mg/Kg. Type of assay: functional.
The subject of assay [12] is Rattus norvegicus. Nature of the assay: Ratio of urinary excretion value (Na+ concentration) in treated rats to that in control rats, at a peroral dose of 0.1 mg/Kg. Type of assay: functional, Urine.
Assay [13] has as its system Rattus norvegicus. Nature of the assay: Serum creatinine concentration measured after intraperitoneal administration of 1 mg/kg of compound to rats(vehicle 5.07+/-0.33). In kind it is functional.
Assay [14] deals with Rattus norvegicus. In words: Oral diuretic activity was measured after oral administration of 0.1 mg/kg to rats(control volume is 1.05+/-0.11). In kind it is functional, Urine.
Assay [15] deals with Rattus norvegicus. Nature of the assay: Percent inhibition of Urea nitrogen by the compound given as ratio of UN value in treated to vehicle treated ones after intraperitoneal administration of 0.1 mg/kg of compound to rats(vehicle 151.5+/-7.4). In kind it is functional. The settings on record: ip.
Assay [16] relates to Rattus norvegicus. Nature of the assay: Oral diuretic activity was measured after oral administration of 1.6 mg/kg to rats(control volume is 0.97+/-0.05). Type of assay: functional, Urine.
The subject of assay [17] is Rattus norvegicus. Nature of the assay: Urea nitrogen concentration measured after intraperitoneal administration of 1 mg/kg of compound to rats(vehicle 195.8+/-14.4). In kind it is functional.
The subject of assay [18] is Rattus norvegicus. In words: Urea nitrogen concentration measured after intraperitoneal administration of 0.01 mg/kg of compound to rats(vehicle 141.3+/-8.3). In kind it is functional.
Assay [19] has as its system Rattus norvegicus. Nature of the assay: Serum creatinine concentration measured after intraperitoneal administration of 0.01 mg/kg of compound to rats(vehicle 3.92+/-0.23). Type of assay: functional.
In assay [20] the test system is Rattus norvegicus. Nature of the assay: Ratio of sodium ion/potassium ion concentration in treated rats to that in control rats, at a peroral dose of 1.6 mg/Kg. Type of assay: functional.
In assay [21] the test system is Rattus norvegicus. Nature of the assay: Ratio of urinary excretion value (urinary volume) in treated rats to that in control rats, at a peroral dose of 0.4 mg/Kg. Type of assay: functional, Urine.
Assay [22] deals with Rattus norvegicus. Nature of the assay: Ratio of urinary excretion value (Na+ concentration) in treated rats to that in control rats, at a peroral dose of 0.4 mg/Kg. Type of assay: functional, Urine.
Assay [23] relates to Rattus norvegicus. In words: Effect on urinary excretion potassium and sodium after oral administration of 1.6 mg/kg to rats(potassium and sodium excretion in control rat is 0.169+/-0.012). In kind it is functional, Urine.
The subject of assay [24] is Rattus norvegicus. In words: Percent inhibition of Urea nitrogen by the compound given as ratio of UN value in treated to vehicle treated ones after intraperitoneal administration of 1 mg/kg of compound to rats(vehicle 195.8+/-14.4). The settings on record: Rattus norvegicus, ip. In kind it is functional.
For assay [25], the system named is Rattus norvegicus. In words: Percent inhibition of Urea nitrogen by the compound given as ratio of UN value in treated to vehicle treated ones after intraperitoneal administration of 0.01 mg/kg of compound to rats(vehicle 141.3+/-8.3). In kind it is functional. The settings on record: ip.
Assay [26] concerns Rattus norvegicus. In words: Urea nitrogen concentration measured after intraperitoneal administration of 0.1 mg/kg of compound to rats(vehicle 151.5+/-7.4). Type of assay: functional.
The test system of assay [27] is Rattus norvegicus. Nature of the assay: Percent inhibition of serum creatinine by the compound given as ratio of Cr value in treated to vehicle treated ones after intraperitoneal administration of 0.1 mg/kg of compound to rats(vehicle 4.82+/-0.17). Type of assay: functional. The settings on record: ip.
Assay [28] deals with Rattus norvegicus. Nature of the assay: Effect on urinary excretion potassium and sodium after oral administration of 25 mg/kg to rats(potassium and sodium excretion in control rat is 0.095+/-0.009). Type of assay: functional, Urine.
Assay [29] has as its system Rattus norvegicus. Nature of the assay: Ratio of sodium ion/potassium ion concentration in treated rats to that in control rats, at a peroral dose of 25 mg/Kg. Type of assay: functional.
Assay [30] deals with Rattus norvegicus. Nature of the assay: Ratio of urinary excretion value (urinary volume) in treated rats to that in control rats, at a peroral dose of 25 mg/Kg. Type of assay: functional, Urine.
Assay [31] concerns Rattus norvegicus. Nature of the assay: Oral diuretic activity was measured after oral administration of 25 mg/kg to rats(control volume is 1.04+/-0.11). In kind it is functional, Urine.
The subject of assay [32] is Rattus norvegicus. In words: Percent inhibition of serum creatinine by the compound given as ratio of Cr value in treated to vehicle treated ones after intraperitoneal administration of 10 mg/kg of compound to rats(vehicle 2.74+/-0.27). Type of assay: functional. The settings on record: ip.
Assay [33] deals with Rattus norvegicus. Nature of the assay: Percent inhibition of Urea nitrogen by the compound given as ratio of UN value in treated to vehicle treated ones after intraperitoneal administration of 10 mg/kg of compound to rats(vehicle 97.7+/-8.7). The settings on record: ip. Type of assay: functional.
The test system of assay [34] is Rattus norvegicus. In words: Ratio of urinary excretion value (Na+ concentration) in treated rats to that in control rats, at a peroral dose of 25 mg/Kg. In kind it is functional, Urine.
Assay [35] deals with Rattus norvegicus. Nature of the assay: Urea nitrogen concentration measured after intraperitoneal administration of 10 mg/kg of compound to rats(vehicle 97.7+/-8.7). Type of assay: functional.
Assay [36] has as its system Rattus norvegicus. Nature of the assay: Serum creatinine concentration measured after intraperitoneal administration of 10 mg/kg of compound to rats(vehicle 2.74+/-0.27). In kind it is functional.

What is called Ki is the dissociation constant of the complex between target and ligand, obtained from inhibition or displacement. Read a high Ki as lower affinity.

For `Cn1c(=O)c2nc(C34CC5CC(CC3C5)C4)[nH]c2n(C)c1=O`, the Na with Rattus norvegicus [1] was found to be 0.257 m equiv 6hr-1 100g-1; in the assay on Rattus norvegicus [5] it was 0.163 m equiv 6hr-1 100g-1; in the assay with Rattus norvegicus [23] it was 0.398 m equiv 6hr-1 100g-1. Also, the Cr is 3.14 mg/dL in the assay on Rattus norvegicus [2], 2.88 mg/dL in the assay on Rattus norvegicus [13] and 3.53 mg/dL in the assay on Rattus norvegicus [19]. Also, the “Na+/K+” value in the assay listed under Rattus norvegicus [3] came out at 0.97; in the assay with Rattus norvegicus [11], 1.54; in the assay with Rattus norvegicus [20] it was 1.67. In addition, the inhibition in vivo at 1 mg/kg in the assay filed under Rattus norvegicus [4] worked out at 43%; in the assay on Rattus norvegicus [24], 40%. Also, the T/C with Rattus norvegicus [6] worked out at 2.36; in the assay on Rattus norvegicus [8], 2.34; with Rattus norvegicus [9], 0.82; in the assay on Rattus norvegicus [12] it was 0.91; in the assay with Rattus norvegicus [21], 1.66; in the assay with Rattus norvegicus [22], 1.74. Further, the values for the inhibition in vivo at 0.01 mg/kg in the assay on Rattus norvegicus [7] and in the assay on Rattus norvegicus [25] were 10% and 6%, respectively. Moreover, at Adenosine A2 receptor, the affinity, expressed as Ki, was 1.2 µM. Also, the Urine volume in the assay with Rattus norvegicus [10] was 1.59 ml 6hr-1 100g-1; with Rattus norvegicus [14], 0.86 ml 6hr-1 100g-1; in the assay on Rattus norvegicus [16] it was 2.27 ml 6hr-1 100g-1. Also, the figures for the inhibition in vivo at 0.1 mg/kg with Rattus norvegicus [15] and with Rattus norvegicus [27] were 36% and 35%, respectively. Also, the figures for the UN in the assay on Rattus norvegicus [17], with Rattus norvegicus [18] and in the assay on Rattus norvegicus [26] were 116.7 mg/dL, 133.4 mg/dL and 97.3 mg/dL, respectively.

Compound `CCCn1c(=O)c2[nH]c(-c3ccc(OCC(=O)NCCN)cc3)nc2n(CCC)c1=O` [XANTHINE AMINE CONGENER] had a Na in the assay on Rattus norvegicus [28] of 0.113 m equiv 6hr-1 100g-1. Moreover, in the assay with Rattus norvegicus [29], the “Na+/K+” value is listed as 1.24. Moreover, the T/C in the assay with Rattus norvegicus [30] stood at 1.05; in the assay on Rattus norvegicus [34], 1.19. The compound further registered a Urine volume with Rattus norvegicus [31] of 1.05 ml 6hr-1 100g-1. Further, the inhibition in vivo at 10 mg/kg came to 24% with Rattus norvegicus [32] and 28% with Rattus norvegicus [33]. This compound yielded a UN in the assay with Rattus norvegicus [35] of 70.1 mg/dL. This compound also showed a Cr with Rattus norvegicus [36] of 2.07 mg/dL.
